Each structure is given as a SMILES string. Counter-ions that a name gives are not always drawn.

For the experiment, the system named is TNF synthesis in human PBMC. The experiment in a line: Human PBMC TNF Synthesis Assay. Conditions: LPS-stimulated human PBMC, overnight incubation, TNF ELISA; read-out: TNF inhib. In kind it is cell-based. The method, then:
Human PBMC TNF Synthesis Assay
Human PBMC were obtained by from a healthy human donor leuko pak. Typically, all donors were pre-screened for STD, HIV and have been given a physical by a physician. One to two ampoules were thawed at 37° C. and then resuspended in 45 to 85 mL of RPMI+10% FBS to a final concentration of 2.5×10^6 cells/mL. Resuspended cells were filtered to remove any large clumps.
Prepare compounds for addition to cells: All compounds were DMSO stocks at 20 mM. Working stock for cell testing were prepared as 4× concentrated material in RPMI+10% FBS. Compounds were added to a polypropylene block and then diluted with the appropriate amount of RPMI+10% FBS. Typically 2.6 μL of 20 mM stock was diluted to 650 μL final volume to yield an 80 μM starting concentration in the stocks. RPMI was added to DMSO stock by pipetting into the tube or block. The compounds were then serial diluted with RPMI+10% FBS. The final DMSO concentrations were not greater than 0.5% in the assay.
Compounds were added to the cells as 4× working stock. 50 μL of compound was prepared above is added to the cells and re-equilibrated in a humidified 5% CO2 incubator at 37° C. for 30 minutes.
A stock of LPS was prepared using RPMI+10% FBS. To prepare the stock, 2.8 μL of LPS (5 mg/mL; Sigma Cat #L3024) was added to 35 mL of media. 50 μL of the LPS in media was added to the cells. Control cultures without LPS received only RPMI+10% FBS. After an overnight incubation at 37° C., the cell culture supernatant was harvested and stored in a polypropylene 96 well plate.
Samples were tested for TNF as per the manufacturer's instructions (TNF ELISA; R&D Systems, Cat #DY210). The samples were serially diluted with PBS+1% BSA to the appropriate dilution condition for the cell prep, typically a 1:4 or 1:6 dilution.
Turning to `CCNC(=O)N1CCC(n2c(=O)n(-c3cccc(Cl)c3)c(=O)c3cnc4c(OC)cccc4c32)CC1` [Example 97, 4-[3-(3-Chloro-phenyl)-7-methoxy-2,4-dioxo-3,4-dihydro-2H-pyrimido[5,4-c]quinolin-1-yl]-piperidine-1-carboxylic acid ethylamide], the IC50 was 0.6 nM.
As for `COc1cccc2c1ncc1c(=O)n(-c3cccc(Cl)c3)c(=O)n(C3CCN(C(=O)NC(C)C)CC3)c12` [Example 98, 4-[3-(3-Chloro-phenyl)-7-methoxy-2,4-dioxo-3,4-dihydro-2H-pyrimido[5,4-c]quinolin-1-yl]-piperidine-1-carboxylic acid isopropylamide], the figure is 0.3 nM; as for `COc1cccc2c1ncc1c(=O)n(-c3ccccc3Cl)c(=O)n(C3CCC(C)CC3)c12` (centres unmarked) [Example 99, 3-(2-Chloro-phenyl)-7-methoxy-1-(4-methyl-cyclohexyl)-1H-pyrimido[5,4-c]quinoline-2,4-dione], 20 nM.
Take `COc1cccc2c1ncc1c(=O)n(-c3cccc(Cl)c3)c(=O)n([C@H]3CC[C@H](C(=O)O)CC3)c12` [Example 103, Trans-4-[3-(3-Chloro-phenyl)-7-methoxy-2,4-dioxo-3,4-dihydro-2H-pyrimido[5,4-c]quinolin-1-yl]-cyclohexanecarboxylic acid.hydrochloride]: the IC50 was found to be 1 nM.
Then `COc1cccc2c1ncc1c(=O)n(-c3cccc(Cl)c3)c(=O)n(C3CCCCC3)c12` [Example 106, 3-(3-Chloro-phenyl)-1-cyclohexyl-7-methoxy-1H-pyrimido[5,4-c]quinoline-2,4-dione], with 4 nM; and `COc1cccc2c1ncc1c(=O)n(-c3ccc4c(c3)OCO4)c(=O)n(C3CCN(C(=O)OC(C)(C)C)CC3)c12` [Example 107, 4-(3-Benzo[1,3]dioxol-5-yl-7-methoxy-2,4-dioxo-3,4-dihydro-2H-pyrimido[5,4-c]quinolin-1-yl)-piperidine-1-carboxylic acid tert-butyl ester], with 1 nM; and `COc1cccc2c1ncc1c(=O)n(-c3ccc4c(c3)OCO4)c(=O)n(C3CCNCC3)c12` [Example 108, 3-Benzo[1,3]dioxol-5-yl-7-methoxy-1-piperidin-4-yl-1H-pyrimido[5,4-c]quinoline-2,4-dione.dihydrochloride], with 450 nM.
As for `COc1cccc2c1ncc1c(=O)n(-c3cccc(SC)c3)c(=O)n(C3CCCC3)c12` [Example 111, 1-Cyclopentyl-7-methoxy-3-(3-methylsulfanyl-phenyl)-1H-pyrimido[5,4-c]quinoline-2,4-dione], the IC50 turned out to be 74 nM.
Then `COc1cccc2c1ncc1c(=O)n(-c3cccc(S(C)(=O)=O)c3)c(=O)n(C3CCCC3)c12` [Example 112, 1-Cyclopentyl-3-(3-methanesulfonyl-phenyl)-7-methoxy-1H-pyrimido[5,4-c]quinoline-2,4-dione], with 280 nM.
As for `COc1cccc2c1ncc1c(=O)n(-c3cccc(Cl)c3)c(=O)n([C@@H]3CCN(C(=O)OC(C)(C)C)C3)c12` [Example 113, 3-[(R)-3-(3-Chloro-phenyl)-7-methoxy-2,4-dioxo-3,4-dihydro-2H-pyrimido[5,4-c]quinolin-1-yl]-pyrrolidine-1-carboxylic acid tert-butyl ester], the figure is 0.3 nM; as for `COc1cccc2c1ncc1c(=O)n(-c3cccc(Cl)c3)c(=O)n([C@@H]3CCNC3)c12` [Example 114, (R)-3-(3-Chloro-phenyl)-7-methoxy-1-pyrrolidin-3-yl-1H-pyrimido[5,4-c]quinoline-2,4-dione.dihydrochloride], 31 nM; as for `COc1cccc2c1ncc1c(=O)n(-c3cccc(Cl)c3)c(=O)n([C@H]3CCN(C(=O)OC(C)(C)C)C3)c12` [Example 116, 3-[(S)-3-(3-Chloro-phenyl)-7-methoxy-2,4-dioxo-3,4-dihydro-2H-pyrimido[5,4-c]quinolin-1-yl]-pyrrolidine-1-carboxylic acid tert-butyl ester], 2 nM.
Then `COc1cccc2c1ncc1c(=O)n(-c3cccc(Cl)c3)c(=O)n([C@H]3CCNC3)c12` [Example 117, (S)-3-(3-Chloro-phenyl)-7-methoxy-1-pyrrolidin-3-yl-1H-pyrimido[5,4-c]quinoline-2,4-dione.dihydrochloride], with 1000 nM; and `COc1cccc2c1ncc1c(=O)n(-c3ccc4c(c3)OCCO4)c(=O)n(C3CCCC3)c12` [Example 120, 1-Cyclopentyl-3-(2,3-dihydro-benzo[1,4]dioxin-6-yl)-7-methoxy-1H-pyrimido[5,4-c]quinoline-2,4-dione], with 240 nM.
On to `COC(=O)N1CCC(n2c(=O)n(-c3cccc(Cl)c3)c(=O)c3cnc4c(OC)cccc4c32)CC1` [Example 124, 4-[3-(3-Chloro-phenyl)-7-methoxy-2,4-dioxo-3,4-dihydro-2H-pyrimido[5,4-c]quinolin-1-yl]-piperidine-1-carboxylic acid methyl ester], for which the IC50 came to 50000 nM.
On to `COc1cccc2c1ncc1c(=O)n(-c3cccc(Cl)c3)c(=O)n(CC3CCN(S(C)(=O)=O)CC3)c12` [Example 126, 3-(3-Chloro-phenyl)-1-(1-methanesulfonyl-piperidin-4-ylmethyl)-7-methoxy-1H-pyrimido[5,4-c]quinoline-2,4-dione], for which the IC50 turned out to be 2 nM.
As for `COc1cccc2c1ncc1c(=O)n(-c3cccc(Cl)c3)c(=O)n([C@H]3CC[C@H](NS(C)(=O)=O)CC3)c12` [Example 127, N-{4-[(S)-3-(3-Chloro-phenyl)-7-methoxy-2,4-dioxo-3,4-dihydro-2H-pyrimido[5,4-c]quinolin-1-yl]-trans-cyclohexyl}-methanesulfonamide], the figure is 6 nM.
